# Results taken from PubChem BioAssay (NCI).
#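 Compound exposure: 48 hours, 5 concentrations, 96-well plates. GI50 is the concentration that inhibits growth by half. TGI: total growth inhibition.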
# Columns and labels:
# Assay in all cases: NCI anticancer screen, dose series, 48 h
# HCC-2998 colon = system: HCC-2998 colon
# CAKI-1 renal = system: CAKI-1 renal
# HCT-15 colon = system: HCT-15 colon
# OVCAR-3 ovarian = system: OVCAR-3 ovarian
# UACC-62 melanoma = system: UACC-62 melanoma
# HOP-62 NSCLC = system: HOP-62 NSCLC
# U251 CNS = system: U251 CNS
# RXF 393 renal = system: RXF 393 renal
# EKVX NSCLC = system: EKVX NSCLC
# ACHN renal = system: ACHN renal
# SN12C renal = system: SN12C renal
# CCRF-CEM leukemia = system: CCRF-CEM leukemia
# SK-MEL-5 melanoma = system: SK-MEL-5 melanoma
# HCT-116 colon = system: HCT-116 colon
# UACC-257 melanoma = system: UACC-257 melanoma
# MDA-MB-231 breast = system: MDA-MB-231 breast
# RPMI-8226 leukemia = system: RPMI-8226 leukemia
# SF-295 CNS = system: SF-295 CNS
# SF-539 CNS = system: SF-539 CNS
# NCI/ADR-RES ovarian = system: NCI/ADR-RES ovarian
# NCI-H226 lung = system: NCI-H226 lung
# SW-620 colon = system: SW-620 colon
# LOX IMVI melanoma = system: LOX IMVI melanoma
# A549 NSCLC = system: A549 NSCLC
# KM12 colon = system: KM12 colon
# SNB-19 CNS = system: SNB-19 CNS
# SK-MEL-2 melanoma = system: SK-MEL-2 melanoma
# HS 578T breast = system: HS 578T breast
# 786-0 renal = system: 786-0 renal
# SK-OV-3 ovarian = system: SK-OV-3 ovarian
# K-562 leukemia = system: K-562 leukemia
# M14 melanoma = system: M14 melanoma
# PC-3 prostate = system: PC-3 prostate
# A498 renal = system: A498 renal
# OVCAR-5 ovarian = system: OVCAR-5 ovarian
# TK-10 renal = system: TK-10 renal
# COLO 205 colon = system: COLO 205 colon
# MCF7 breast = system: MCF7 breast
# UO-31 renal = system: UO-31 renal
# OVCAR-4 ovarian = system: OVCAR-4 ovarian
# SK-MEL-28 melanoma = system: SK-MEL-28 melanoma
# HOP-92 NSCLC = system: HOP-92 NSCLC
# SF-268 CNS = system: SF-268 CNS
# DU-145 prostate = system: DU-145 prostate
# OVCAR-8 ovarian = system: OVCAR-8 ovarian
# HL-60(TB) leukemia = system: HL-60(TB) leukemia
# MDA-MB-435 = system: MDA-MB-435
# MOLT-4 leukemia = system: MOLT-4 leukemia
# NCI-H460 lung = system: NCI-H460 lung
# SR leukemia = system: SR leukemia
# MALME-3M melanoma = system: MALME-3M melanoma
# SNB-75 CNS = system: SNB-75 CNS
# NCI-H23 lung = system: NCI-H23 lung
# HT29 colon = system: HT29 colon
# IGROV1 ovarian = system: IGROV1 ovarian
# T-47D breast = system: T-47D breast
compound,measurement,setting,value
COc1cccc([C@H]2C/C(=N\NC(=O)C(=O)N[C@@H](C)c3ccccc3)c3ccccc3N2)c1,TGI,HCC-2998 colon,49.5 nM
same,TGI,CAKI-1 renal,54.1 µM
same,TGI,HCT-15 colon,> 100 µM
same,TGI,OVCAR-3 ovarian,> 100000 nM
same,TGI,UACC-62 melanoma,96.2 nM
same,GI50,HOP-62 NSCLC,83.5 nM
same,GI50,U251 CNS,32.5 nM
same,TGI,U251 CNS,> 100 µM
same,GI50,RXF 393 renal,30.3 nM
same,TGI,RXF 393 renal,> 100 µM
same,TGI,EKVX NSCLC,> 100 µM
same,TGI,ACHN renal,> 100 µM
same,TGI,SN12C renal,89.8 nM
same,TGI,CCRF-CEM leukemia,3.09 µM
same,TGI,SK-MEL-5 melanoma,868 nM
same,TGI,HCT-116 colon,12 µM
same,TGI,UACC-257 melanoma,> 100 µM
same,TGI,MDA-MB-231 breast,41.4 µM
same,TGI,RPMI-8226 leukemia,0.0503 µM
same,TGI,SF-295 CNS,> 100000 nM
same,GI50,SF-539 CNS,20.8 nM
same,TGI,SF-539 CNS,21.3 µM
same,GI50,NCI/ADR-RES ovarian,< 10 nM
same,TGI,NCI/ADR-RES ovarian,53.5 nM
same,TGI,NCI-H226 lung,3.03 µM
same,TGI,SW-620 colon,> 100 µM
same,TGI,LOX IMVI melanoma,> 100 µM
same,GI50,A549 NSCLC,36.6 nM
same,TGI,A549 NSCLC,> 100 µM
same,TGI,KM12 colon,76.2 nM
same,GI50,SNB-19 CNS,25.9 nM
same,TGI,SNB-19 CNS,> 100 µM
same,TGI,SK-MEL-2 melanoma,> 100 µM
same,TGI,HS 578T breast,88 nM
same,TGI,786-0 renal,97.3 µM
same,TGI,SK-OV-3 ovarian,> 100 µM
same,TGI,K-562 leukemia,0.0554 µM
same,TGI,M14 melanoma,> 100 µM
same,TGI,PC-3 prostate,> 100 µM
same,TGI,A498 renal,> 100 µM
same,TGI,OVCAR-5 ovarian,> 100 µM
same,TGI,TK-10 renal,> 100 µM
same,TGI,COLO 205 colon,13.1 µM
same,GI50,MCF7 breast,30.6 nM
same,TGI,MCF7 breast,> 100 µM
same,TGI,UO-31 renal,> 100 µM
same,GI50,OVCAR-4 ovarian,45.3 µM
same,TGI,OVCAR-4 ovarian,> 100 µM
same,TGI,SK-MEL-28 melanoma,> 100 µM
same,GI50,HOP-92 NSCLC,422 nM
same,TGI,HOP-92 NSCLC,> 100 µM
same,GI50,SF-268 CNS,91.2 nM
same,TGI,SF-268 CNS,> 100 µM
same,TGI,DU-145 prostate,15.6 µM
same,GI50,OVCAR-8 ovarian,28.5 nM
same,TGI,OVCAR-8 ovarian,1050 nM
O=C(Nc1ccncc1)C(=O)c1cn(Cc2ccc(Cl)cc2)c2ccccc12,GI50,HCC-2998 colon,114 nM
same,TGI,HCC-2998 colon,> 100000 nM
same,GI50,CAKI-1 renal,35.5 nM
same,TGI,CAKI-1 renal,> 100 µM
same,GI50,HCT-15 colon,40.8 nM
same,TGI,HCT-15 colon,> 100 µM
same,GI50,OVCAR-3 ovarian,26.7 nM
same,TGI,OVCAR-3 ovarian,65.2 nM
same,GI50,UACC-62 melanoma,51.4 nM
same,TGI,UACC-62 melanoma,> 100000 nM
same,GI50,HOP-62 NSCLC,59.7 nM
same,TGI,HOP-62 NSCLC,> 100 µM
same,GI50,U251 CNS,47.2 nM
same,TGI,U251 CNS,> 100 µM
same,GI50,RXF 393 renal,30.2 nM
same,GI50,HL-60(TB) leukemia,32.7 nM
same,TGI,HL-60(TB) leukemia,237 nM
same,GI50,EKVX NSCLC,261 nM
same,TGI,EKVX NSCLC,> 100 µM
same,GI50,MDA-MB-435,< 10 nM
same,TGI,MDA-MB-435,44 nM
same,GI50,ACHN renal,82 nM
same,TGI,ACHN renal,> 100 µM
same,GI50,SN12C renal,72.5 nM
same,TGI,SN12C renal,> 100000 nM
same,GI50,CCRF-CEM leukemia,33.1 nM
same,TGI,CCRF-CEM leukemia,> 100 µM
same,GI50,SK-MEL-5 melanoma,30.9 nM
same,TGI,SK-MEL-5 melanoma,> 35000 nM
same,GI50,HCT-116 colon,48 nM
same,TGI,HCT-116 colon,> 100 µM
same,GI50,MDA-MB-231 breast,179 nM
same,TGI,MDA-MB-231 breast,> 100 µM
same,GI50,RPMI-8226 leukemia,0.0416 µM
same,TGI,RPMI-8226 leukemia,> 100 µM
same,GI50,SF-295 CNS,21.7 nM
same,TGI,SF-295 CNS,80.3 nM
same,GI50,MOLT-4 leukemia,64 nM
same,TGI,MOLT-4 leukemia,> 100 µM
same,GI50,SF-539 CNS,27.8 nM
same,TGI,SF-539 CNS,0.0788 µM
same,GI50,NCI/ADR-RES ovarian,31.7 nM
same,TGI,NCI/ADR-RES ovarian,> 100000 nM
same,GI50,NCI-H460 lung,58.5 nM
same,TGI,NCI-H460 lung,> 100 µM
same,GI50,NCI-H226 lung,276 nM
same,TGI,NCI-H226 lung,> 100 µM
same,GI50,SW-620 colon,33.2 nM
same,TGI,SW-620 colon,> 100 µM
same,GI50,LOX IMVI melanoma,57.4 nM
same,TGI,LOX IMVI melanoma,> 100 µM
same,GI50,A549 NSCLC,399 nM
same,TGI,A549 NSCLC,> 100 µM
same,GI50,SR leukemia,29.8 nM
same,TGI,SR leukemia,> 100 µM
same,GI50,KM12 colon,38.4 nM
same,TGI,KM12 colon,> 100000 nM
same,GI50,SNB-19 CNS,62.2 nM
same,TGI,SNB-19 CNS,> 100 µM
same,GI50,MALME-3M melanoma,41.4 nM
same,TGI,MALME-3M melanoma,> 100 µM
same,GI50,SNB-75 CNS,37.5 nM
same,TGI,SNB-75 CNS,3.79 µM
same,GI50,HS 578T breast,33.9 nM
same,TGI,HS 578T breast,> 100000 nM
same,GI50,786-0 renal,53.3 nM
same,TGI,786-0 renal,> 100 µM
same,GI50,NCI-H23 lung,54.8 nM
same,TGI,NCI-H23 lung,> 100 µM
same,GI50,SK-OV-3 ovarian,199 nM
same,TGI,SK-OV-3 ovarian,> 100 µM
same,GI50,HT29 colon,36.3 nM
same,TGI,HT29 colon,> 100 µM
same,GI50,K-562 leukemia,26.5 nM
same,TGI,K-562 leukemia,34.8 µM
same,GI50,M14 melanoma,48 nM
same,TGI,M14 melanoma,> 100 µM
same,GI50,PC-3 prostate,41.9 nM
same,TGI,PC-3 prostate,> 100 µM
same,GI50,A498 renal,544 nM
same,TGI,A498 renal,> 100 µM
same,GI50,OVCAR-5 ovarian,223 nM
same,TGI,OVCAR-5 ovarian,> 100 µM
same,GI50,TK-10 renal,457 nM
same,TGI,TK-10 renal,> 100 µM
same,GI50,COLO 205 colon,232 nM
same,TGI,COLO 205 colon,> 22.3 µM
same,GI50,IGROV1 ovarian,141 nM
same,TGI,IGROV1 ovarian,> 100 µM
same,GI50,MCF7 breast,36.3 nM
same,TGI,MCF7 breast,> 100 µM
same,GI50,UO-31 renal,78.8 nM
same,TGI,UO-31 renal,> 100 µM
same,GI50,OVCAR-4 ovarian,0.106 µM
same,TGI,OVCAR-4 ovarian,> 100 µM
same,GI50,SK-MEL-28 melanoma,71.1 nM
same,TGI,SK-MEL-28 melanoma,> 100 µM
same,GI50,HOP-92 NSCLC,48.9 nM
same,TGI,HOP-92 NSCLC,> 75.1 µM
same,GI50,T-47D breast,43.6 nM
same,TGI,T-47D breast,> 100 µM
same,GI50,SF-268 CNS,77.5 nM
same,TGI,SF-268 CNS,> 100 µM
same,GI50,DU-145 prostate,51 nM
same,TGI,DU-145 prostate,> 65 µM
same,GI50,OVCAR-8 ovarian,54.9 nM
same,TGI,OVCAR-8 ovarian,> 100000 nM
C=CCN(CC=C)C(=O)[C@H](CC)[C@@H]1CC[C@@H](C)[C@@H]([C@H](C)[C@@H](O)[C@@H](C)C(=O)[C@H](CC)C2O[C@]3(C=CC(=O)[C@]4(CC[C@@](C)([C@H]5CC[C@](O)(CC)[C@H](C)O5)O4)O3)[C@H](C)C[C@@H]2C)O1 (some centres not stated),GI50,CAKI-1 renal,1960 nM
same,TGI,CAKI-1 renal,> 100 µM
same,GI50,CCRF-CEM leukemia,2650 nM
same,TGI,CCRF-CEM leukemia,> 100 µM
same,GI50,HCT-116 colon,2760 nM
same,TGI,HCT-116 colon,> 100 µM
same,GI50,K-562 leukemia,2310 nM
same,TGI,K-562 leukemia,> 100 µM
same,GI50,PC-3 prostate,2020 nM
same,TGI,PC-3 prostate,> 100 µM
COCCCC(NC(=O)C(CC(C)C)NC(=O)OCc1ccc(OC)cc1)C(N)=O (configuration not stated),GI50,OVCAR-4 ovarian,47.2 µg/mL
C=CC1CN2CCC1CC2C(O)c1ccnc2ccc(OC)cc12 (configuration not stated),GI50,RPMI-8226 leukemia,53 µM
same,TGI,RPMI-8226 leukemia,> 100 µM
same,GI50,MALME-3M melanoma,> 100000 nM
same,TGI,MALME-3M melanoma,> 100 µM
same,GI50,NCI-H23 lung,> 100000 nM
same,TGI,NCI-H23 lung,> 100 µM
same,GI50,A498 renal,> 100000 nM
same,TGI,A498 renal,> 100 µM
